Legend:
TT Cell = test: TT cell activity test (CelltiterGlo, 72 h); format: cell-based, human; details: for IC50: Homo sapiens, TT cell line, 72 h, CTG; for inhibitory activity on TT cells compared with cabozantinib: comparison in words
Experimental: 2.3 Data Processing % Inhibition (inhibition rate)=100*(HC−test compound well reading)/(HC−LC) • High control (HC, reading control without inhibition): 0.5% DMSO • Low control (LC, control with compound inhibition): 1 μM CEP-32496
The IC50 values were calculated using GraphPad Prism 6 software. Y=Bottom+(Top−Bottom)/(1+10^((Log IC50−X)*HillSlope)); • X: log of cpd concentration; • Y: % inhibition; • Top and Bottom: plateaus in same units as Y; • Log IC50: same log units as X; and • HillSlope: slope factor The Cell Results are Shown in Table 5: […]

RET G810R = RET G810R (Homo sapiens (Human), UniProt P07949, G810R); test: HTRF kinase activity test, RET G810R; format: biochemical; details: for IC50: HTRF KinEASE-TK; for inhibitory activity on RET G810R compared with cabozantinib and selpercatinib (LOXO-292): comparison in words
RET V804M = RET V804M (Homo sapiens (Human), UniProt P07949, V804M); test: HTRF kinase activity test, RET V804M; format: biochemical; details: for IC50: HTRF KinEASE-TK; for inhibitory activity on RET V804M compared with cabozantinib: comparison in words
RET wt = RET wt (Homo sapiens (Human), UniProt P07949); test: HTRF kinase activity test, RET wt; format: biochemical
Chain of RET wt (P07949 29-1114): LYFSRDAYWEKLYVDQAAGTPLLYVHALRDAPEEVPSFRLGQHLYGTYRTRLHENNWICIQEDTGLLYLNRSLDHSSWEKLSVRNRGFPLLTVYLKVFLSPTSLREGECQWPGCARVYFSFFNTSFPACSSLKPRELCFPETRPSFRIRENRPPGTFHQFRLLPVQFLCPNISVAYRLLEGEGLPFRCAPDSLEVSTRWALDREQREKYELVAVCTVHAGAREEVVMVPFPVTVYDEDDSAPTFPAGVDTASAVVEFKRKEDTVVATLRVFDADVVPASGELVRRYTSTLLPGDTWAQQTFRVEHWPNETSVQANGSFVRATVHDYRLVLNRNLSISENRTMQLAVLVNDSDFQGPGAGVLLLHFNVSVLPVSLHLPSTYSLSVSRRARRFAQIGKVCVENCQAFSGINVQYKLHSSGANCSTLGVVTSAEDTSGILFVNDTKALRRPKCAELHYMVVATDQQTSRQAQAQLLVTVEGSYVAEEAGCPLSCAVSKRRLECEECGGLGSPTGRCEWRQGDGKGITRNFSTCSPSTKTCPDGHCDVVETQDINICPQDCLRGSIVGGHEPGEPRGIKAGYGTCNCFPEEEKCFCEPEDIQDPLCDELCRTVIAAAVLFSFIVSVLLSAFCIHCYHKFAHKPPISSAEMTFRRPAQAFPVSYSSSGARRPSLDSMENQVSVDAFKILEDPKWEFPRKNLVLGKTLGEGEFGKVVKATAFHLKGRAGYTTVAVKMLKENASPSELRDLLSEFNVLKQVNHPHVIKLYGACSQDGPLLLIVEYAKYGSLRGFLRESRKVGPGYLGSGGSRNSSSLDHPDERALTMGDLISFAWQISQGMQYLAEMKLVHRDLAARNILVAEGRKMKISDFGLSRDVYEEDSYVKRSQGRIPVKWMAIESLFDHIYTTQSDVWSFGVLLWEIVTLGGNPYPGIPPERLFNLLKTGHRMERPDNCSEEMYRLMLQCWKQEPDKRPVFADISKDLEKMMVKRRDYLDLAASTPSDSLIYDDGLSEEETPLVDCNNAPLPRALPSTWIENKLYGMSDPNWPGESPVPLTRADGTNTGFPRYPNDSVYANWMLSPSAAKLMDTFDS

Chain of RET G810R (P07949 29-1114 G810R): as the sequence (P07949 29-1114) above, with G782R counted along it
Chain of RET V804M (P07949 29-1114 V804M): as the sequence (P07949 29-1114) above, with V776M counted along it

COc1ccc(CN2C3CC2CN(c2cnc(-c4cc(OCCF)cn5nc6[nH]ncc6c45)cn2)C3)cn1 [Compound 16, 6-(2-fluoroethoxy)-4-(5-(6-((6-methoxypyridin-3-yl)methyl)-3,6-diazabicyclo[3.3.1]heptan-3-yl)pyrazin-2-yl)-1H-pyrazolo[3′,4′:3,4]pyrazolo[1,5-a]pyridine]
IC50 (TT Cell): 12.8 nM | inhibitory activity on TT cells compared with cabozantinib (TT Cell): significantly better than that of cabozantinib | IC50 (RET G810R): 2.9 nM | inhibitory activity on RET G810R compared with cabozantinib and selpercatinib (LOXO-292) (RET G810R): significantly better than that of cabozantinib and selpercatinib (LOXO-292) | IC50 (RET V804M): 0.1 nM | inhibitory activity on RET V804M compared with cabozantinib (RET V804M): significantly better than that of cabozantinib

COCCOc1cc(-c2ccc(N3CC4CC(C3)N4Cc3ccc(OC)nc3)nc2)c2c3c(N)n[nH]c3nn2c1 [Compound 1, 6-(2-methoxyethoxy)-4-(6-(6-((6-methoxypyridin-3-yl)methyl)-3,6-diazabicyclo[3.3.1]heptan-3-yl)pyridin-3-yl)-1H-pyrazolo[3′,4′:3,4]pyrazolo[1,5-a]pyridin-3-amine]
IC50 (TT Cell): 319 nM | IC50 (RET wt; HTRF KinEASE-TK): 4.1 nM | inhibitory activity on RET wt compared with cabozantinib (RET wt; comparison in words): significantly better than that of cabozantinib | IC50 (RET V804M): 2.9 nM | inhibitory activity on RET V804M compared with cabozantinib (RET V804M): significantly better than that of cabozantinib

COc1ccc(C(=O)N2C3CC2CN(c2ccc(-c4cc(OCCF)cn5nc6[nH]ncc6c45)cn2)C3)cn1 [Compound 23, (3-(5-(6-(2-fluoroethoxy)-1H-pyrazolo[3′,4′:3,4]pyrazolo[1,5-a]pyridin-4-yl)pyridin-2-yl)-3,6-diazabicyclo[3.3.1]heptan-6-yl)(6-methoxypyridin-3-yl)methanone]
IC50 (TT Cell): 7.9 nM | inhibitory activity on TT cells compared with cabozantinib (TT Cell): significantly better than that of cabozantinib | IC50 (RET V804M): 0.1 nM | inhibitory activity on RET V804M compared with cabozantinib (RET V804M): significantly better than that of cabozantinib

COc1ccc(CN2C3CC2CN(c2cnc(-c4cc(OCC(F)F)cn5nc6[nH]ncc6c45)cn2)C3)cn1 [Compound 25, 6-(2,2-difluoroethoxy)-4-(5-(6-((6-methoxypyridin-3-yl)methyl)-3,6-diazabicyclo[3.3.1]heptan-3-yl)pyrazin-2-yl)-1H-pyrazolo[3′,4′:3,4]pyrazolo[1,5-a]pyridine]
IC50 (TT Cell): 23.4 nM | inhibitory activity on TT cells compared with cabozantinib (TT Cell): significantly better than that of cabozantinib | IC50 (RET G810R): 4.3 nM | inhibitory activity on RET G810R compared with cabozantinib and selpercatinib (LOXO-292) (RET G810R): significantly better than that of cabozantinib and selpercatinib (LOXO-292)

COc1cc(-c2cnc(N3CC4CC(C3)N4Cc3ccc(OC)nc3)cn2)c2c3cn[nH]c3nn2c1 [Compound 24, 6-methoxy-4-(5-(6-((6-methoxypyridin-3-yl)methyl)-3,6-diazabicyclo[3.3.1]heptan-3-yl)pyrazin-2-yl)-1H-pyrazolo[3′,4′:3,4]pyrazolo[1,5-a]pyridine]
IC50 (TT Cell): 22.4 nM | inhibitory activity on TT cells compared with cabozantinib (TT Cell): significantly better than that of cabozantinib | IC50 (RET G810R): 2.3 nM | inhibitory activity on RET G810R compared with cabozantinib and selpercatinib (LOXO-292) (RET G810R): significantly better than that of cabozantinib and selpercatinib (LOXO-292)

COc1ccc(C(=O)N2CCN(c3ccc(-c4cc(OCCF)cn5nc6[nH]ncc6c45)cn3)CC2)cn1 [Compound 22, (4-(5-(6-(2-fluoroethoxy)-1H-pyrazolo[3′,4′:3,4]pyrazolo[1,5-a]pyridin-4-yl)pyridin-2-yl)piperazin-1-yl)(6-methoxypyridin-3-yl)methanone]
IC50 (TT Cell): 39.5 nM | inhibitory activity on TT cells compared with cabozantinib (TT Cell): significantly better than that of cabozantinib | IC50 (RET G810R): 1.7 nM | inhibitory activity on RET G810R compared with cabozantinib and selpercatinib (LOXO-292) (RET G810R): significantly better than that of cabozantinib and selpercatinib (LOXO-292)

COc1ccc(CN2C3CC2CN(c2ccc(-c4cc(OCC(F)(F)F)cn5nc6[nH]ncc6c45)cn2)C3)cn1 [Compound 30, 4-(6-(6-((6-methoxypyridin-3-yl)methyl)-3,6-diazabicyclo[3.3.1]heptan-3-yl)pyridin-3-yl)-6-(2,2,2-trifluoroethoxy)-1H-pyrazolo[3′,4′:3,4]pyrazolo[1,5-a]pyridine]
IC50 (TT Cell): 48.6 nM | inhibitory activity on TT cells compared with cabozantinib (TT Cell): significantly better than that of cabozantinib | IC50 (RET G810R): 5.9 nM | inhibitory activity on RET G810R compared with cabozantinib and selpercatinib (LOXO-292) (RET G810R): significantly better than that of cabozantinib and selpercatinib (LOXO-292)

CCN(CC)C(=O)N1CCN(c2ccc(-c3cc(OCCF)cn4nc5[nH]ncc5c34)cn2)CC1 [Compound 18, N,N-diethyl-4-(5-(6-(2-fluoroethoxy)-1H-pyrazolo[3′,4′:3,4]pyrazolo[1,5-a]pyridin-4-yl)pyridin-2-yl)piperazine-1-carboxamide]
IC50 (TT Cell): 78.2 nM | inhibitory activity on TT cells compared with cabozantinib (TT Cell): significantly better than that of cabozantinib | IC50 (RET G810R): 18.9 nM | inhibitory activity on RET G810R compared with cabozantinib and selpercatinib (LOXO-292) (RET G810R): significantly better than that of cabozantinib and selpercatinib (LOXO-292)

COc1ccc(CN2C3CC2CN(c2ccc(-c4cc(OCCCCF)cn5nc6[nH]ncc6c45)cn2)C3)cn1 [Compound 13]
IC50 (TT Cell): 10.7 nM | inhibitory activity on TT cells compared with cabozantinib (TT Cell): significantly better than that of cabozantinib | IC50 (RET G810R): 3.1 nM | inhibitory activity on RET G810R compared with cabozantinib and selpercatinib (LOXO-292) (RET G810R): significantly better than that of cabozantinib and selpercatinib (LOXO-292)

O=C([C@H](O)c1ccccc1)N1CCN(c2ccc(-c3cc(OCCF)cn4nc5[nH]ncc5c34)cn2)CC1 [Compound 20, (R)-1-(4-(5-(6-(2-fluoroethoxy)-1H-pyrazolo[3′,4′:3,4]pyrazolo[1,5-a]pyridin-4-yl)pyridin-2-yl)piperazin-1-yl)-2-hydroxy-2-phenylethan-1-one]
IC50 (TT Cell): 27.8 nM | inhibitory activity on TT cells compared with cabozantinib (TT Cell): significantly better than that of cabozantinib | IC50 (RET G810R): 1.6 nM | inhibitory activity on RET G810R compared with cabozantinib and selpercatinib (LOXO-292) (RET G810R): significantly better than that of cabozantinib and selpercatinib (LOXO-292)

COc1ccc(CN2C3CC2CN(c2ccc(-c4cc(OCc5ccccc5)cn5nc6[nH]ncc6c45)cn2)C3)cn1 [Compound 3, 6-(benzyloxy)-4-(6-(6-((6-methoxypyridin-3-yl)methyl)-3,6-diazabicyclo[3.3.1]heptan-3-yl)pyridin-3-yl)-1H-pyrazolo[3′,4′:3,4]pyrazolo[1,5-a]pyridine]
IC50 (TT Cell): 32.8 nM | inhibitory activity on TT cells compared with cabozantinib (TT Cell): significantly better than that of cabozantinib | IC50 (RET G810R): 16.2 nM | inhibitory activity on RET G810R compared with cabozantinib and selpercatinib (LOXO-292) (RET G810R): significantly better than that of cabozantinib and selpercatinib (LOXO-292)

CO[C@@H](C(=O)N1CCN(c2ccc(-c3cc(OCCF)cn4nc5[nH]ncc5c34)cn2)CC1)c1ccccc1 [Compound 21, (R)-1-(4-(5-(6-(2-fluoroethoxy)-1H-pyrazolo[3′,4′:3,4]pyrazolo[1,5-a]pyridin-4-yl)pyridin-2-yl)piperazin-1-yl)-2-methoxy-2-phenylethan-1-one]
IC50 (TT Cell): 15.8 nM | inhibitory activity on TT cells compared with cabozantinib (TT Cell): significantly better than that of cabozantinib | IC50 (RET G810R): 0.6 nM | inhibitory activity on RET G810R compared with cabozantinib and selpercatinib (LOXO-292) (RET G810R): significantly better than that of cabozantinib and selpercatinib (LOXO-292)
